Entries after “also recorded” stand apart in the source; their conditions may differ. Like-named read-outs stand apart in the source and are kept apart here.
Legend:
[1] = tested on: myeloma cell line U266; assay: MTT cell viability, myeloma cell line U266; type: cell-based; details: for cytotoxicity at 50 µM: Homo sapiens
Description: In order to determine the effect of the cannabinoid compound WIN 55,212-2, myeloma cell line U266 was incubated for a period of 48 and 96 hours with increasing concentrations of WIN 55,212-2 between 0.5 and 50 uM; cell viability was determined by means of the MTT metabolization. The MTT assay is based on the capacity of the mitochondrial enzyme, succinate dehydrogenase, of viable cells for transforming the tetrazolium salt MTT into a blue-colored product, MTT formazan, which is proportional to the number of living cells present. The mean proliferation values of the untreated control cell cultures were taken as 100%.
(§1) The method for the determination of cell viability by means of the MTT assay is based on the capacity that viable cells have of metabolizing 3-(4,5-dimethylthiazol-2-yl)-2,5-diphenyltetrazol (MTT) bromide. The metabolic reduction of MTT due to the action of the mitochondrial enzyme, succinate dehydrogenase, gives rise to the insoluble and colored form called formazan, which can be quantified by means of spectrocolorimetry. The amount of living cells is proportional to the optical density resulting.
(§2) After incubation with cannabinoids, 10 microliters of MTT were added to each well and were incubated 2-4 hours in the same conditions. The reaction is subsequently stopped, the crystallized formazan is solubilized and optical density was determined at 450 nm in a plate spectrophotometer. All the assays were performed in triplicate.
To determine the effect of cannabinoid compound WIN 55,212-2, myeloma cell line U266 was incubated for a period of 48 and 96 hours with increasing concentrations of WIN 55,212-2 between 0.5 and 50 uM; cell viability was determined by means of MTT metabolization. The MTT assay is based on the capacity of the mitochondrial enzyme, succinate dehydrogenase, of viable cells to transform tetrazolium salt MTT into a blue-colored product, formazan MTT, which is proportional to the number of living cells present. Mean proliferation values of untreated control cell cultures were taken as 100%.

[2] = tested on: myeloma cell line U266; assay: Cell viability by flow cytometry (7AAD labeling), U266; type: cell-based; details: U266, 7AAD flow cytometry, 48 h
Description: These same assays were repeated incubating the myeloma cell line U266 for a period of 48 hours with increasing concentrations of WIN 55,212-2 between 0.5 and 50 uM.
(§3) For the viability analysis by means of flow cytometry, the cells were treated with suitably labeled monoclonal antibodies for the identification of each of the cell types used. Once labeled; the cells were exposed for 15 min to 7AAD ([…]) to evaluate cell viability; the reading was performed in the cytometer and analyzed with the computer program adapted for the cytometer. At least 100,000 events were acquired, and the mean fluorescence intensity was obtained.
These same assays were repeated, incubating myeloma cell line U266 for a period of 48 hours with increasing concentrations of WIN 55,212-2 between 0.5 and 50 uM. Nevertheless, cell viability was determined by means of flow cytometry instead of by means of MTT metabolization.

[3] = tested on: multiple myeloma cell line MM1.S; assay: MTT cell viability, multiple myeloma cell line MM1.S; type: cell-based
Description: (§4) In this sense, in order to carry out these assays the authors incubated the myeloma cell line MM1.S at different concentrations with the cannabinoid agent WIN 55-212,2 for 48 and 96 hours, and cell viability was determined by means of MTT metabolization. Mean proliferation values of untreated control cell cultures were taken as 100%. The data corresponds to the means+/−the standard deviation of the triplicates of each of the 4 assays performed. […] Cell viability also drops after 96 hours of exposure to the drug at the same concentrations.
as §1, §2
as §4, with “incubated” for “incubated the”, “the means +/− the” for “the means+/−the”, “drug ay” for “drug at”

[4] = tested on: CD34+ hematopoietic progenitors; assay: MTT cytotoxicity on CD34+ hematopoietic progenitors from healthy donors; type: cell-based, human; details: CD34+ hematopoietic progenitors of healthy donors, 0.5-50 micromol, 12 or 18 h
Description: (§5) Finally, the authors of the present invention evaluated the toxicity of cannabinoid agent WIN 55,212-2, which was determined in terms of cell viability by means of two types of assays, one based on the drop in 3(4,5dimethyl-2-thiazoyl)-2,5-diphenyltetrazolic bromide (MTT), and another one based on the interaction of 7AAD. Primary cultures of mononuclear cells obtained from peripheral blood from healthy donors (CD34+ hematopoietic progenitors) and from bone marrow of patients suffering multiple myeloma (CD64+, granulocytes (B), CD45+, lymphocytes (C) and CD38+, plasma cells (D)) were used. […]
as §1, with “The amount of living cells is proportional to the optical density resulting.” left out
After incubation with cannabinoids, 10 microliters of MTT were added to each well and were incubated 2-4 hours in the same conditions. The reaction is subsequently stopped, the crystallized formazan is solubilized and optical density was determined at 450 nm in a plate spectrophotometer. […]

[5] = tested on: CD64+ granulocytes (polymorphonuclear cells); assay: 7AAD viability of granulocytes in primary bone marrow culture of myeloma patients; type: cell-based, human; details: 0.5-50 micromol, 18 h
Description: as §5, §3
(§6) The authors of the present invention evaluated the toxicity of cannabinoid agent WIN 55,212-2, which was determined in terms of cell viability by means of two types of assays, one based on the drop in 3(4,5dimethyl-2-thiazoyl)-2,5-diphenyltetrazolic (MTT) bromide, and another one based on the interaction of the 7AAD. […]

[6] = tested on: CD45+ lymphocytes; assay: 7AAD viability of lymphocytes in primary bone marrow culture of myeloma patients; type: cell-based, human
Description: as §5, §3, §6

[7] = tested on: CD38+ plasma cells; assay: 7AAD viability of plasma cells in primary bone marrow culture of myeloma patients; type: cell-based, human
Description: Finally, the authors of the present invention evaluated the toxicity of cannabinoid agent WIN 55,212-2, which was determined in terms of cell viability by means of two types of assays, one based on the drop in 3(4,5dimethyl-2-thiazoyl)-2,5-diphenyltetrazolic bromide (MTT), and another one based on the interaction of 7AAD. Primary cultures of mononuclear cells obtained from peripheral blood from healthy donors (CD34+ hematopoietic progenitors) and from bone marrow of patients suffering multiple myeloma (CD64+, granulocytes (B), CD45+, lymphocytes (C) and CD38+, plasma cells (D)) were used.
The plasma cells, granulocytes and lymphocytes were obtained from bone marrow samples from patients with multiple myeloma after hypotonic lysis with ammonium chloride (0.16 M in 0.17 M Tris, pH 7.6) for 10 min at room temperature, for the purpose of removing the erythrocyte cell population. The cell suspension resulting from lysis, which only contains mononuclear cells, was seeded in multiwell plates at the same cell density as the progenitor cells using supplemented RPMI medium plus 20% fetal bovine serum.
The primary cultures were incubated in the presence and absence of the cannabinoid agent WIN 55,212-2 at different concentrations. […]
as §3, §6

Cc1c(C(=O)c2cccc3ccccc23)c2cccc3c2n1[C@H](CN1CCOCC1)CO3 [WIN 55,212-2, (R)-(+)-[2,3-Dihydro-5-methyl-3-(4-morpholinylmethyl)pyrrolo[1,2,3-de]-1,4 benzoxazin-6-yl]-1-naphtalenylmethanone]
cytotoxicity at 50 µM ([1]; U-266, 48 h, read-out: inhibition of cell viability, U266, MTT, 48 h, 50 uM): ~60%
cytotoxicity at 50 µM ([1]; U-266, 96 h, read-out: inhibition (drop) of cell viability, U266, MTT, 96 h, 50 uM): ~80%
cell viability drops to ([1]; U266, MTT, 48 h, 10 uM and 20 uM, untreated control = 100%): 40%
inhibition of cell viability ([1]; U266, MTT, 48 h, between 10 uM and 20 uM): about 40%
concentration from which a cytotoxic effect (significant drop in cell viability, p<0.05) is seen [2]: ≥ 10 µM
sensitivity of cell line MM1.S compared with cell line U266 ([3]; 48 and 96 h): more sensitive
concentration after which cell viability noticeably dropped ([3]; MM1.S, 48 h): greater than 1 uM
cytotoxicity ([3]; MM1.S, 48 h, 10 uM, 20 uM and 50 uM): greater than 50%
cell viability after longer incubation ([3]; MM1.S, 96 h, same concentrations as at 48 h): also drops; also recorded: also affected
drop in cell viability at 96 h compared with 48 h ([3]; MM1.S, 96 h vs 48 h): lower than at short incubation times
cell viability [4]: not affected
cell viability [5]: not affected
loss of viability ([6]; 0.5-50 micromol, 12 or 18 h): only detected at the highest dose
drop in cell viability ([6]; 7AAD, 18 h, 50 uM): 40%
cytotoxicity at 50 µM ([7]; Homo sapiens, 18 h, read-out: reduction of cell viability): > 80%
doses producing a drastic drop in cell viability ([7]; plasma cells, bone marrow primary culture, 12 or 18 h): greater than 10 uM
population of plasma cells after incubation ([7]; plasma cells, bone marrow primary culture, 18 h, 20 uM and 50 uM): drastically reduced

Reference: patent US10045994B2, “Agents for treating multiple myeloma” (SERVICIO ANDALUZ DE SALUD, priority 2013, dated 2018)
